Experimental data published in PMC12638379, “An innovative approach to development of new pyrazolylquinolin-2-one hybrids as dual EGFR and BRAF^V600E inhibitors” (Molecular Diversity, 2025).
Like-named read-outs stand apart in the source and are kept apart here.

Tested on: NCI 60 cancer cell lines
Test: NCI anticancer screening over a panel of 60 cancer cells, single concentration 10 µM
Assay type: cell-based, human
Settings: Homo sapiens, read-out: Growth inhibition (GI %)
How it was run: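 Primary single-dose screen at 10 µM over the NCI panel of 60 human tumour cell lines (leukemia, CNS, lung, colon, kidney, ovary, breast, prostate). The standard NCI Developmental Therapeutics Program protocol was used.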

Compound: CC(=O)c1cnn(-c2cc(=O)[nH]c3ccc(Cl)cc23)c1C [Compound 2d, 4-(4Aacetyl-5-methyl-1H-pyrazol-1-yl)-6-chloroquinolin-2(1H)-one]
- inhibition at 10 µM (A498, Renal cancer A498, 10 μM): < 5%
- inhibition at 10 µM (A549, Non-small cell lung cancer A549/ATCC, 10 μM): 5.11%
- inhibition at 10 µM (ACHN, Renal cancer ACHN, 10 μM): 7.6%
- inhibition at 10 µM (BT-549, Breast cancer BT-549, 10 μM): < 5%
- inhibition at 10 µM (CAKI-1, Renal cancer CAKI-1, 10 μM): 15.1%
- inhibition at 10 µM (CCRF-CEM, Leukemia CCRF-CEM, 10 μM): 8.99%
- inhibition at 10 µM (COLO 205, Colon cancer COLO 205, 10 μM): < 5%
- inhibition at 10 µM (DU-145, Prostate cancer DU-145, 10 μM): < 5%
- inhibition at 10 µM (EKVX, Non-small cell lung cancer EKVX, 10 μM): 13.9%
- inhibition at 10 µM (HCC 2998, Colon cancer HCC-2998, 10 μM): < 5%
- inhibition at 10 µM (HCT-15, Colon cancer HCT-15, 10 μM): < 5%
- inhibition at 10 µM (HCT-116, Colon cancer HCT-116, 10 μM): < 5%
- inhibition at 10 µM (HL-60, Leukemia HL-60(TB), 10 μM): 6.19%
- inhibition at 10 µM (HOP-62, Non-small cell lung cancer HOP-62, 10 μM): 9.35%
- inhibition at 10 µM (HOP-92, Non-small cell lung cancer HOP-92, 10 μM): 13.4%
- inhibition at 10 µM (HT-29, Colon cancer HT29, 10 μM): < 5%
- inhibition at 10 µM (Hs-578T, Breast cancer HS 578T, 10 μM): < 5%
- inhibition at 10 µM (IGROV-1, Ovarian cancer IGROV1, 10 μM): 7.41%
- inhibition at 10 µM (K562, Leukemia K-562, 10 μM): 5.5%
- inhibition at 10 µM (KM12, Colon cancer KM12, 10 μM): < 5%
- inhibition at 10 µM (LOX IMVI, Melanoma LOX IMVI, 10 μM): 11.2%
- inhibition at 10 µM (Leukemia SR, 10 μM): < 5%
- inhibition at 10 µM (MCF7, Breast cancer MCF7, 10 μM): 6.43%
- inhibition at 10 µM (MDA-MB-435, Melanoma MDA-MB-435, 10 μM): < 5%
- inhibition at 10 µM (MDA-MB-468, Breast cancer MDA-MB-468, 10 μM): < 5%
- inhibition at 10 µM (MOLT-4, Leukemia MOLT-4, 10 μM): 8.77%
- inhibition at 10 µM (Malme-3M, Melanoma MALME-3M, 10 μM): 13.3%
- inhibition at 10 µM (Melanoma M14, 10 μM): < 5%
- inhibition at 10 µM (NCI-H23, Non-small cell lung cancer NCI-H23, 10 μM): 5.37%
- inhibition at 10 µM (NCI-H226, Non-small cell lung cancer NCI-H226, 10 μM): 16.6%
- inhibition at 10 µM (NCI-H322M, Non-small cell lung cancer NCI-H322M, 10 μM): 12.2%
- inhibition at 10 µM (NCI-H460, Non-small cell lung cancer NCI-H460, 10 μM): < 5%
- inhibition at 10 µM (NCI-H522, Non-small cell lung cancer NCI-H522, 10 μM): 5.29%
- inhibition at 10 µM (NCI/ADR-RES, Ovarian cancer NCI/ADR-RES, 10 μM): 5.32%
- inhibition at 10 µM (OVCAR-3, Ovarian cancer OVCAR-3, 10 μM): < 5%
- inhibition at 10 µM (OVCAR-4, Ovarian cancer OVCAR-4, 10 μM): < 5%
- inhibition at 10 µM (OVCAR-5, Ovarian cancer OVCAR-5, 10 μM): < 5%
- inhibition at 10 µM (OVCAR-8, Ovarian cancer OVCAR-8, 10 μM): < 5%
- inhibition at 10 µM (Prostate cancer PC-3, 10 μM): 11%
- inhibition at 10 µM (RPMI-8226, Leukemia RPMI-8226, 10 μM): 9.16%
- inhibition at 10 µM (RXF 393, Renal cancer RXF 393, 10 μM): < 5%
- inhibition at 10 µM (SF-268, CNS Cancer SF-268, 10 μM): < 5%
- inhibition at 10 µM (SF-295, CNS Cancer SF-295, 10 μM): 5.21%
- inhibition at 10 µM (SF-539, CNS Cancer SF-539, 10 μM): 14.4%
- inhibition at 10 µM (SK-MEL-2, Melanoma SK-MEL-2, 10 μM): < 5%
- inhibition at 10 µM (SK-MEL-5, Melanoma SK-MEL-5, 10 μM): 5.89%
- inhibition at 10 µM (SK-MEL-28, Melanoma SK-MEL-28, 10 μM): < 5%
- inhibition at 10 µM (SK-OV-3, Ovarian cancer SK-OV-3, 10 μM): 6.14%
- inhibition at 10 µM (SN12C, Renal cancer SN12C, 10 μM): 15.2%
- inhibition at 10 µM (SNB-19, CNS Cancer SNB-19, 10 μM): 7.35%
- inhibition at 10 µM (SNB-75, CNS Cancer SNB-75, 10 μM): < 5%
- inhibition at 10 µM (SW-620, Colon cancer SW-620, 10 μM): < 5%
- inhibition at 10 µM (T47D, Breast cancer T-47D, 10 μM): < 5%
- inhibition at 10 µM (TK-10, Renal cancer TK-10, 10 μM): < 5%
- inhibition at 10 µM (U-251, CNS Cancer U251, 10 μM): < 5%
- inhibition at 10 µM (UACC-62, Melanoma UACC-62, 10 μM): 15.7%
- inhibition at 10 µM (UACC-257, Melanoma UACC-257, 10 μM): < 5%
- inhibition at 10 µM (UO-31, Renal cancer UO-31, 10 μM): 35%
